Measured values as given in US10512634B2, “Benzimidazole derivates useful as inhibitors of mammalian histone deacetylase activity” (KANCERA AB, priority 2015, dated 2019).
Where a name gives a salt, the structure may show the parent alone. Read-outs that look alike come from different tables or passages of the source.

What was measured:
[1] = molecular target: HDAC6 (Homo sapiens (Human), UniProt Q9UBN7); assay: HDAC in vitro enzymatic assay (fluorescence); format: biochemical
Method: Biological Tests Method for Measurement of Enzymatic Activity of HDACs Materials & Methods
All Examples were tested in HDAC1, 2, 3, 6 and 8 in vitro enzymatic assays. The assay principle is well known (Hauser et al. 2009, Bradner et al. 2010) and all necessary reagents like enzymes, substrates, developer and reference compounds are commercially available (see e.g. BPS Biosciences http://www.bpsbioscience.com/). A series of dilutions of the compounds were prepared with a top concentration of 200 μM (2 μM for HDAC6). The enzymatic reactions were conducted in a mixture containing assay buffer, bovine serum albumin, HDAC substrate, and a test compound. After enzymatic reaction, developer was added and after an additional incubation time, fluorescence intensity was measured at an excitation wavelength of 360 nm and an emission wavelength of 460 nm. A selection of the Examples were tested in a full HDAC panel containing HDAC1, 2, 3, 4, 5, 6, 7, 8, 9, 10 and 11 in vitro enzymatic assays. The tests were performed as above except that a series of dilutions of the compounds were prepared with a top concentration of 10 μM for all HDACs.

[2] = test system: AMO-1 (plasmacytom); assay: CellTiter-Blue cell viability assay; format: cell-based; settings: Homo sapiens, read-out: IC50 AMO-1 (cell viability)
Method: (§1) Method for Measurement of Cell Viability
(§2) The CellTiter-Blue® Cell Viability Assay (Promega) provides a homogeneous, fluorometric method for estimating the number of viable cells present in multi-well plates. The assay uses the indicator dye resazurin to measure the metabolic capacity of cells. Viable cells retain the ability to reduce resazurin into resorufin, which is highly fluorescent.
(§3) Stock solutions (10 mM in DMSO) of compounds were serially diluted 1:2 in 11 concentrations. 50 nL/well (10 mM compound stock in DMSO) was acoustically dispensed in 384-well assay plates with an acoustic dispenser (EDC Biosystems ATS-100AV). Final starting concentration in the assay was 20 μM (0.2% DMSO) for test compounds. […] After 72 hours, Celltiter Blue reagent (Promega #G8081) was diluted 1:10 with PBS and then added to wells (5 μL/well). The plates were incubated for 2 hours following addition of reagent. […] Results were calculated as % cell viability compared to background (cells treated with 0.2% DMSO).

[3] = test system: PBMC (peripheral blood mononuclear cells from healthy donors); assay: CellTiter-Blue cell viability assay; format: cell-based; settings: read-out: IC50 healthy PBMC (cell viability)
Method: as §1, §2, §3

[4] = test system: PaCa2 (pancreatic); assay: CellTiter-Blue cell viability assay; format: cell-based; settings: read-out: IC50 PaCa2 (cell viability)
Method: as §1, §2, §3

[5] = test system: U266 (multiple myelom); assay: CellTiter-Blue cell viability assay; format: cell-based; settings: Homo sapiens, read-out: IC50 U266 (cell viability)
Method: as §1, §2, §3

[6] = molecular target: HDAC1 (Homo sapiens (Human), UniProt Q13547); assay: HDAC in vitro enzymatic assay (fluorescence)
HDAC1, sequence (Q13547 whole entry): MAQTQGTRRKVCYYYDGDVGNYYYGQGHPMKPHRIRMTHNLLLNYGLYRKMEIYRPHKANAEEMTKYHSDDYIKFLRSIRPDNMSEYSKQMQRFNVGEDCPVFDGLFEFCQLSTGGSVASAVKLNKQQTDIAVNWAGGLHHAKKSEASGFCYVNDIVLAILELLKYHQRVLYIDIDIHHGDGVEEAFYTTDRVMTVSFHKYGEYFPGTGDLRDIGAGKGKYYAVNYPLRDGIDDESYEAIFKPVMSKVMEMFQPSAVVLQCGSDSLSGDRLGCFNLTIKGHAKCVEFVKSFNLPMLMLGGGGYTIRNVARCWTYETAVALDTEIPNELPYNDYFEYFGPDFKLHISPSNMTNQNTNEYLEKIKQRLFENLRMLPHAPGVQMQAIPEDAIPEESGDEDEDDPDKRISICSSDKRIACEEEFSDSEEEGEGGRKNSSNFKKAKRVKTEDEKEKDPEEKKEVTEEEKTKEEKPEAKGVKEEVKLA

[7] = molecular target: HDAC2 (Homo sapiens (Human), UniProt Q92769); assay: HDAC in vitro enzymatic assay (fluorescence); settings: read-out: IC50 HDAC2
HDAC2, sequence (Q92769 whole entry): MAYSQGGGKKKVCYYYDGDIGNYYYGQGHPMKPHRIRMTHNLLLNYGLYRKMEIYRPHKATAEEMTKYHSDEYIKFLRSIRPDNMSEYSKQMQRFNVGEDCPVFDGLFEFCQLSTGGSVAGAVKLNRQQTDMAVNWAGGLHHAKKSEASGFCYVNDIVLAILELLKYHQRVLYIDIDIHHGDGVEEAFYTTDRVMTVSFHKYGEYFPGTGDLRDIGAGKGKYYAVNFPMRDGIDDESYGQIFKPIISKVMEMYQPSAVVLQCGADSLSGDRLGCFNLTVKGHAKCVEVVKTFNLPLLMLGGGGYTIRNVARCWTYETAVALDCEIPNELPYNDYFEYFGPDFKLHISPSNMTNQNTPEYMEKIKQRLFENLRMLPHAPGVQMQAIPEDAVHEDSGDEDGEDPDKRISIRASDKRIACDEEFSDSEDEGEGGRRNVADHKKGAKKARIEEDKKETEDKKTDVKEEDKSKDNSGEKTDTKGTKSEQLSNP

[8] = molecular target: HDAC3 (Homo sapiens (Human), UniProt O15379); assay: HDAC in vitro enzymatic assay (fluorescence); settings: read-out: IC50 HDAC3
HDAC3, sequence (O15379 whole entry): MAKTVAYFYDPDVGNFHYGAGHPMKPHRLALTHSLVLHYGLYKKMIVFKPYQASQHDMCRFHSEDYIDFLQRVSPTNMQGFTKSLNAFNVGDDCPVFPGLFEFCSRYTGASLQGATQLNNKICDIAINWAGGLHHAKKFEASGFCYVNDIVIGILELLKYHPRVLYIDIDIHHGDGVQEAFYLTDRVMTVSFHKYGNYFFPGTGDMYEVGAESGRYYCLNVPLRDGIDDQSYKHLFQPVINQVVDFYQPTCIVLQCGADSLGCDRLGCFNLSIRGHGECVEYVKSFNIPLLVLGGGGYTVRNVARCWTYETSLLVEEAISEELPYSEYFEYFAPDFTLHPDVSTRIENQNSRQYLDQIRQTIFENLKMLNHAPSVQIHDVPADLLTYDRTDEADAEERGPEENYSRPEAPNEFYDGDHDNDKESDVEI
HDAC3, sequence (Q9Y618 395-489 partner): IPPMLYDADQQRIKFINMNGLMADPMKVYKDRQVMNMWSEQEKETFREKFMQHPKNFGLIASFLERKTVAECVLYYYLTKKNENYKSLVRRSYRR

[9] = molecular target: HDAC8 (Homo sapiens (Human), UniProt Q9BY41); assay: HDAC in vitro enzymatic assay (fluorescence); settings: read-out: IC50 HDAC8
HDAC8, sequence (Q9BY41 whole entry): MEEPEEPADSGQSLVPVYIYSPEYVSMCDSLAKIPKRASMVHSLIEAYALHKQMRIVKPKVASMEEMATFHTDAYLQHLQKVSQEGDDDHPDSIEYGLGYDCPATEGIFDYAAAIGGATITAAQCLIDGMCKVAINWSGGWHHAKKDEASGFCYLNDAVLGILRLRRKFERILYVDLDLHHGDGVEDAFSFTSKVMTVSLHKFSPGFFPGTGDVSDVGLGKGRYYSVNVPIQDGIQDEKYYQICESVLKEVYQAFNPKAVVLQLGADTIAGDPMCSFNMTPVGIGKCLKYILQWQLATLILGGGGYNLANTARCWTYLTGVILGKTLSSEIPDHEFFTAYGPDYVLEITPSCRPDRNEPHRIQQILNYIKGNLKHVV

[10] = molecular target: HDAC4 (Homo sapiens (Human), UniProt P56524); assay: HDAC in vitro enzymatic assay (full HDAC panel); settings: read-out: IC50 HDAC4, top concentration 10 μM
[11] = molecular target: HDAC5 (Homo sapiens (Human), UniProt Q9UQL6); assay: HDAC in vitro enzymatic assay (full HDAC panel); settings: read-out: IC50 HDAC5, top concentration 10 μM
[12] = molecular target: HDAC7 (Homo sapiens (Human), UniProt Q8WUI4); assay: HDAC in vitro enzymatic assay (full HDAC panel); settings: read-out: IC50 HDAC7, top concentration 10 μM
HDAC7, sequence (Q8WUI4 whole entry): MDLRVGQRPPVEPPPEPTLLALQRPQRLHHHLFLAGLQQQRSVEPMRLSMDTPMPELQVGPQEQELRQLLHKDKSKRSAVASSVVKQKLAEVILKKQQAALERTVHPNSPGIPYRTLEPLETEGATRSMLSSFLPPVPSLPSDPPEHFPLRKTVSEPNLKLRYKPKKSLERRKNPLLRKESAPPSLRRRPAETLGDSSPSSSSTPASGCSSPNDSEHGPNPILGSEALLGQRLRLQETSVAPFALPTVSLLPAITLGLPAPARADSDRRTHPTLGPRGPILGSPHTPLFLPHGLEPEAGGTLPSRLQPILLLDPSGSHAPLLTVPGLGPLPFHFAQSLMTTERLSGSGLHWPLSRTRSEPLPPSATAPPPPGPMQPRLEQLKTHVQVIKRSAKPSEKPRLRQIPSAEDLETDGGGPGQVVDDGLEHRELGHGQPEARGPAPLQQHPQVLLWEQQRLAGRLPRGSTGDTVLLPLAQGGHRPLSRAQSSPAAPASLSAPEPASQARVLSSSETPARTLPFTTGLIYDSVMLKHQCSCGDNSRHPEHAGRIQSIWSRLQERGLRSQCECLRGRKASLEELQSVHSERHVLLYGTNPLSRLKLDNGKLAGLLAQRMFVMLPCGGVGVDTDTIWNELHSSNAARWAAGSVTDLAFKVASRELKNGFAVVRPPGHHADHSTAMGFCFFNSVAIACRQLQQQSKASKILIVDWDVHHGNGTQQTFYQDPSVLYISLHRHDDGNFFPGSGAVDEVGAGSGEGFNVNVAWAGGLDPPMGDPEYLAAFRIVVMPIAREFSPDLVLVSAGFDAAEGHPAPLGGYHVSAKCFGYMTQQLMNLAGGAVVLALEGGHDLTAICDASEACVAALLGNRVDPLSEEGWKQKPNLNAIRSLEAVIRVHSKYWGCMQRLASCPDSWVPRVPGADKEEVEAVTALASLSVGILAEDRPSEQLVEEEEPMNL

[13] = molecular target: HDAC9 (Homo sapiens (Human), UniProt Q9UKV0); assay: HDAC in vitro enzymatic assay (full HDAC panel); settings: read-out: IC50 HDAC9, top concentration 10 μM
HDAC9, sequence (Q9UKV0 whole entry): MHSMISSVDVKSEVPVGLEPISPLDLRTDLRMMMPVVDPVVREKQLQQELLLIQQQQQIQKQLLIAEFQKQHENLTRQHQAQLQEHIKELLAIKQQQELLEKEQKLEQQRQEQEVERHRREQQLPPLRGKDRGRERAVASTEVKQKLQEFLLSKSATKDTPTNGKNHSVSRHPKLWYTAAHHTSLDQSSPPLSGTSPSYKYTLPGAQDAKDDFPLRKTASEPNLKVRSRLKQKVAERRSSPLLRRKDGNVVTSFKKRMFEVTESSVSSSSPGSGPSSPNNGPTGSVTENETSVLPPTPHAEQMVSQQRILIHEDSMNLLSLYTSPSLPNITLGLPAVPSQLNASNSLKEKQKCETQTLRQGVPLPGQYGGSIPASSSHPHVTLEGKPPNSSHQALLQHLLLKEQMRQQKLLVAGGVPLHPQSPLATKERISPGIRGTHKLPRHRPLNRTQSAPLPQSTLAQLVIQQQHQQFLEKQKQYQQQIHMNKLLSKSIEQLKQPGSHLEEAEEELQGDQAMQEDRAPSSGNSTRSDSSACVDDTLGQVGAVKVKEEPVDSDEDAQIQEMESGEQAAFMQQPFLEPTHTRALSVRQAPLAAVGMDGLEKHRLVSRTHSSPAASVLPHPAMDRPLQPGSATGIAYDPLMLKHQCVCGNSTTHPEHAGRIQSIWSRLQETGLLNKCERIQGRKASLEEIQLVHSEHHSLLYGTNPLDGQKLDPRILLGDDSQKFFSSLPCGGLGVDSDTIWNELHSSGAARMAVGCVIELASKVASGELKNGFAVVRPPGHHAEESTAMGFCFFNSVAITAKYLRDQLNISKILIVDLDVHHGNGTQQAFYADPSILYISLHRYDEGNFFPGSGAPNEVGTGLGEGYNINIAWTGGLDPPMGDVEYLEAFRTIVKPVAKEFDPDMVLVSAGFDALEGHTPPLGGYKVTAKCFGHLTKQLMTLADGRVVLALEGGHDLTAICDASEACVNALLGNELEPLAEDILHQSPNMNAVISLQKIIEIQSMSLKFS

[14] = molecular target: HDAC10 (Homo sapiens (Human), UniProt Q969S8); assay: HDAC in vitro enzymatic assay (full HDAC panel); settings: read-out: IC50 HDAC10, top concentration 10 μM
HDAC10, sequence (Q969S8 whole entry): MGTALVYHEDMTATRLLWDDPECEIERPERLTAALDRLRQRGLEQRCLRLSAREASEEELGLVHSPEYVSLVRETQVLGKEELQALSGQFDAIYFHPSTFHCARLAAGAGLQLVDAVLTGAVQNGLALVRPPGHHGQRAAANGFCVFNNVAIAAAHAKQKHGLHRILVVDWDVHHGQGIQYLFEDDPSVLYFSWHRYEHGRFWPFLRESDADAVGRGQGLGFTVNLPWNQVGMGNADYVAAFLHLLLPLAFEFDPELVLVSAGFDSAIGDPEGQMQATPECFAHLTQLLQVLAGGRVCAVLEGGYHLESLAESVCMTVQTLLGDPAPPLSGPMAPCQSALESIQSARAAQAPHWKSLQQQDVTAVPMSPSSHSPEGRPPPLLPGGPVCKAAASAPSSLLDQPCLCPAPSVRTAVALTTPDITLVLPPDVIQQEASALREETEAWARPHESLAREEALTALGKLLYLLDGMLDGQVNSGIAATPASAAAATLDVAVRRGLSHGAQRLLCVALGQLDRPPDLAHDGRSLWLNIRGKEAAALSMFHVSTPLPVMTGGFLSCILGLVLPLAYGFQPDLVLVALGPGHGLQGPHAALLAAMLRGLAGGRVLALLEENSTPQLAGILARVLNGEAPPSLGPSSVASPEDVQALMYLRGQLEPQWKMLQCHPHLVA

[15] = molecular target: HDAC11 (Homo sapiens (Human), UniProt Q96DB2); assay: HDAC in vitro enzymatic assay (full HDAC panel); settings: read-out: IC50 HDAC11, top concentration 10 μM
HDAC11, sequence (Q96DB2 whole entry): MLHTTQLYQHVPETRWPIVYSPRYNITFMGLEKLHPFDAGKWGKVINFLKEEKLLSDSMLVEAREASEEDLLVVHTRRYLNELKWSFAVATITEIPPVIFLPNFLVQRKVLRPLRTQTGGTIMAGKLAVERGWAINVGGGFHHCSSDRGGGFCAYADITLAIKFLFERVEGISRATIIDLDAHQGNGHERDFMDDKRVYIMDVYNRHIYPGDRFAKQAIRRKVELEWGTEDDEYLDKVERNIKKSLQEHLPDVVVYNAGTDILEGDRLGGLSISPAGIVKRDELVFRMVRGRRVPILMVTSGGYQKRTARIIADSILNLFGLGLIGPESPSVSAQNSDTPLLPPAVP

[16] = top concentration 2 μM, read-out: IC50 values for inhibition of HDAC6
[17] = AMO1, AMO-1 cells, 72 hours of treatment
[18] = healthy PBMC, 72 hours of treatment
[19] = PaCa-2, PaCa2 cells, 72 hours of treatment
[20] = U-266, U266 cells, 72 hours of treatment
[21] = selectivity profiling, top concentration 2 μM, read-out: IC50 HDAC6
[22] = read-out: IC50 HDAC1, selectivity profiling, top concentration 200 μM
[23] = selectivity profiling, top concentration 200 μM
[24] = full HDAC panel, top concentration 10 μM

Structure (SMILES)	IC50 [1, 16]	IC50 [2, 17]	IC50 [3, 18]	IC50 [4, 19]	IC50 [5, 20]	IC50 [1, 21]	IC50 ([2]; AMO1, 72 h)	IC50 ([3]; PBMC, 72 h)	IC50 ([4]; PaCa-2, 72 h)	IC50 ([5]; U-266, 72 h)	IC50 [6, 22]	IC50 [7, 23]	IC50 [8, 23]	IC50 [9, 23]	further results
CC(C)(C)c1ccc(-c2nc3ccc(C(=O)NO)cc3[nH]2)cc1 [Example 159, 2-(4-tert-butylphenyl)-N-hydroxy-1H-benzimidazole-6-carboxamide]	19 nM	6300 nM	> 20000 nM	2100 nM	1200 nM	–	–	–	–	–	–	–	–	–	–
O=C(NO)c1ccc2nc(-c3ccc(Oc4ccccc4)cc3)[nH]c2c1 [Example 8, N-hydroxy-2-(4-phenoxyphenyl)-1H-benzimidazole-6-carboxamide]	–	2300 nM	> 20000 nM	1700 nM	2000 nM	–	–	–	–	–	–	–	–	–	–
CC(C)c1ccc(-c2nc3ccc(C(=O)NO)cc3[nH]2)cc1 [Example 50, N-hydroxy-2-[4-(1-methylethyl)phenyl]-1H-benzimidazole-6-carboxamide]	14 nM	–	–	–	–	14 nM	2000 nM	> 20000 nM	290 nM	580 nM	3300 nM	32000 nM	3400 nM	420 nM	–
CCCCCCCCCc1ccc(-c2nc3ccc(C(=O)NO)cc3[nH]2)cc1 [Example 161, 2-(4-nonylphenyl)-N-hydroxy-1H-benzimidazole-6-carboxamide]	–	5500 nM	> 20000 nM	610 nM	640 nM	–	–	–	–	–	–	–	–	–	–
Cn1c(-c2ccc(-c3ccccc3)cc2)nc2cc(C(=O)NO)ccc21 [Example 225, 2-biphenyl-4-yl-N-hydroxy-1-methyl-1H-benzimidazole-5-carboxamide]	3.6 nM	–	–	–	–	3.6 nM	> 20000 nM	> 20000 nM	1000 nM	340 nM	326 nM	> 200000 nM	> 200000 nM	74 nM	–
O=C(NO)c1ccc2nc(-c3ccc(Br)cc3)[nH]c2c1 [Example 3, 2-(4-bromophenyl)-N-hydroxy-1H-benzimidazole-6-carboxamide]	45 nM	6300 nM	> 20000 nM	6000 nM	2900 nM	–	–	–	–	–	–	–	–	–	–
O=C(NO)c1ccc2nc(-c3ccc(-c4cccc(Cl)c4)cc3)[nH]c2c1 [Example 151, 2-(3′-chlorobiphenyl-4-yl)-N-hydroxy-1H-benzimidazole-6-carboxamide]	–	1900 nM	> 20000 nM	1000 nM	490 nM	–	–	–	–	–	–	–	–	–	–
O=C(NO)c1ccc2nc(-c3cccc(C(F)(F)F)c3Cl)[nH]c2c1 [Example 34, 2-[2-chloro-3-(trifluoromethyl)phenyl]-N-hydroxy-1H-benzimidazole-6-carboxamide]	–	10000 nM	> 20000 nM	12000 nM	3900 nM	–	–	–	–	–	–	–	–	–	–
O=C(NO)c1ccc2nc(-c3ccc(-c4cccc(Cl)c4)s3)[nH]c2c1 [Example 177, 2-[5-(3-chlorophenyl)thiophen-2-yl]-N-hydroxy-1H-benzimidazole-6-carboxamide]	5.1 nM	3500 nM	> 20000 nM	1100 nM	620 nM	–	–	–	–	–	–	–	–	–	–
O=C(NO)c1ccc2nc(-c3ccc(-c4ccccc4)cc3)[nH]c2c1 [Example 6, 2-biphenyl-4-yl-N-hydroxy-1H-benzimidazole-6-carboxamide]	15 nM	–	–	–	–	15 nM	1700 nM	> 20000 nM	410 nM	540 nM	51000 nM	160000 nM	2100 nM	470 nM	–
CC(C)c1ccc(-c2nc3cc(C(=O)NO)ccc3n2C)cc1 [Example 223, N-hydroxy-1-methyl-2-[4-(1-methylethyl)phenyl]-1H-benzimidazole-5-carboxamide]	28 nM	–	–	–	–	28 nM	18000 nM	> 20000 nM	5400 nM	8200 nM	1600 nM	60000 nM	4500 nM	84 nM	–
COc1ccc2cc(-c3nc4ccc(C(=O)NO)cc4[nH]3)ccc2c1 [Example 10, N-hydroxy-2-(6-methoxynaphthalen-2-yl)-1H-benzimidazole-6-carboxamide]	–	2200 nM	> 20000 nM	1200 nM	2100 nM	–	–	–	–	–	–	–	–	–	–
O=C(NO)c1ccc2nc(-c3ccccc3C(F)(F)F)[nH]c2c1 [Example 18, N-hydroxy-2-[2-(trifluoromethyl)phenyl]-1H-benzimidazole-6-carboxamide]	77 nM	–	–	–	–	–	–	–	–	–	–	–	–	–	IC50 ([1]; full HDAC panel, top concentration 10 μM, read-out: IC50 HDAC6): 77 nM; IC50 ([6]; read-out: IC50 HDAC 1, full HDAC panel, top concentration 10 μM): > 10000 nM; IC50 [7, 24]: > 10000 nM; IC50 [8, 24]: 3000 nM; IC50 [9, 24]: > 10000 nM; IC50 [10]: > 10000 nM; IC50 [11]: > 10000 nM; IC50 [12]: 9200 nM; IC50 [13]: > 10000 nM; IC50 [14]: 8600 nM; IC50 [15]: > 10000 nM
CCCCc1ccc(-c2nc3ccc(C(=O)NO)cc3[nH]2)cc1 [Example 162, 2-(4-butylphenyl)-N-hydroxy-1H-benzimidazole-6-carboxamide]	31 nM	–	–	–	–	31 nM	3700 nM	> 20000 nM	820 nM	740 nM	7700 nM	94000 nM	11000 nM	190 nM	–
O=C(NO)c1ccc2nc(-c3cccc(Br)c3)[nH]c2c1 [Example 21, 2-(3-bromophenyl)-N-hydroxy-1H-benzimidazole-6-carboxamide]	12 nM	–	–	–	–	12 nM	7000 nM	> 20000 nM	4300 nM	7800 nM	1500 nM	9300 nM	780 nM	62 nM	–
O=C(NO)c1ccc2nc(-c3ccc(-c4ccc(CN5CCOCC5)cc4)cc3)[nH]c2c1 [Example 190, N-hydroxy-2-[4′-(morpholin-4-ylmethyl)biphenyl-4-yl]-1H-benzimidazole-6-carboxamide trifluoroacetate]	21 nM	–	–	–	–	21 nM	8100 nM	> 20000 nM	2300 nM	3900 nM	4000 nM	13000 nM	910 nM	80 nM	–
